Measurements taken from PubChem BioAssay (NCI).
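Five compound concentrations were applied to cells in 96-well plates for 48 hours; endpoints were derived by simple linear interpolation of the resulting dose-response curve. GI50 = concentration required for 50% inhibition of growth. Definition used: TGI = concentration required for complete inhibition of growth.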

Tests used:
Test in all cases: NCI-60 cell line screen, 48 h
[1] = system: OVCAR-3 ovarian
[2] = system: MCF7 breast
[3] = system: NCI-H23 lung
[4] = system: SNB-19 CNS
[5] = system: COLO 205 colon
[6] = system: MALME-3M melanoma
[7] = system: SK-MEL-2 melanoma
[8] = system: CAKI-1 renal
[9] = system: 786-0 renal
[10] = system: ACHN renal
[11] = system: SF-268 CNS
[12] = system: HCC-2998 colon
[13] = system: A549 NSCLC
[14] = system: RPMI-8226 leukemia
[15] = system: OVCAR-4 ovarian
[16] = system: LOX IMVI melanoma
[17] = system: HCT-15 colon
[18] = system: MOLT-4 leukemia
[19] = system: UO-31 renal
[20] = system: SK-MEL-5 melanoma
[21] = system: IGROV1 ovarian
[22] = system: SK-OV-3 ovarian
[23] = system: NCI-H460 lung
[24] = system: SR leukemia
[25] = system: SNB-75 CNS
[26] = system: MDA-MB-468 breast
[27] = system: KM12 colon
[28] = system: HS 578T breast
[29] = system: HL-60(TB) leukemia
[30] = system: MDA-MB-435
[31] = system: RXF 393 renal
[32] = system: BT-549 breast
[33] = system: UACC-62 melanoma
[34] = system: M14 melanoma
[35] = system: HT29 colon
[36] = system: HCT-116 colon
[37] = system: A498 renal
[38] = system: HOP-92 NSCLC
[39] = system: SK-MEL-28 melanoma
[40] = system: PC-3 prostate
[41] = system: TK-10 renal
[42] = system: EKVX NSCLC
[43] = system: SN12C renal
[44] = system: T-47D breast
[45] = system: NCI-H226 lung
[46] = system: MDA-MB-231 breast
[47] = system: UACC-257 melanoma
[48] = system: HOP-62 NSCLC
[49] = system: SW-620 colon
[50] = system: K-562 leukemia
[51] = system: SF-539 CNS
[52] = system: OVCAR-5 ovarian
[53] = system: DU-145 prostate
[54] = system: SF-295 CNS

With `COc1ccc(OC)c(/C=C/C(=O)c2nc3ccccc3n2Cc2ccc(F)cc2)c1` the GI50 [1] was 2.17 µM, the TGI [1] was 5.6 µM and the GI50 [2] was 2.15 µM. For the same compound, the TGI [2] was > 100 µM, the GI50 [3] was 2.24 µM and the TGI [3] was 6.62 µM. The GI50 [4] was 2.31 µM, the TGI [4] was 6.08 µM and the GI50 [5] was 2.61 µM. The TGI [5] was 8.08 µM, the GI50 [6] was 3 µM and the TGI [6] was 14.3 µM. It also gave a GI50 [7] of 1.94 µM, a TGI [7] of 4.19 µM and a GI50 [8] of 3.08 µM. For the same compound, the TGI [8] was > 100 µM, the GI50 [9] was 2.93 µM and the TGI [9] was 9.51 µM. The GI50 [10] was 2.94 µM, the TGI [10] was 9.13 µM and the GI50 [11] was 3.5 µM. For the same compound, the TGI [11] was > 100 µM, the GI50 [12] was 1.95 µM and the TGI [12] was 3.93 µM. The GI50 [13] was 3.27 µM, the TGI [13] was > 100 µM and the GI50 [14] was 2.05 µM. For the same compound, the TGI [14] was 5.89 µM, the GI50 [15] was 5.02 µM and the TGI [15] was > 100 µM. The GI50 [16] was 1.56 µM, the TGI [16] was 3.06 µM and the GI50 [17] was 1.62 µM. It also gave a TGI [17] of 3.69 µM, a GI50 [18] of 2.15 µM and a TGI [18] of 7.98 µM. It also gave a GI50 [19] of 2.37 µM, a TGI [19] of 8.61 µM and a GI50 [20] of 2.73 µM. The TGI [20] was 10.1 µM, the GI50 [21] was 3.01 µM and the TGI [21] was 11.1 µM. The GI50 [22] was 11.4 µM, the TGI [22] was > 100 µM and the GI50 [23] was 1.67 µM. For the same compound, the TGI [23] was 4 µM, the GI50 [24] was 2.2 µM and the TGI [24] was 7.4 µM. The GI50 [25] was 1.54 µM, the TGI [25] was 6.66 µM and the GI50 [26] was 2.11 µM. The TGI [26] was 5.8 µM, the GI50 [27] was 2.52 µM and the TGI [27] was 7.14 µM. The GI50 [28] was 3.12 µM, the TGI [28] was > 100 µM and the GI50 [29] was 1.57 µM. It also gave a TGI [29] of 5.93 µM, a GI50 [30] of 2.02 µM and a TGI [30] of 4.94 µM. It also gave a GI50 [31] of 1.92 µM, a TGI [31] of 4.41 µM and a GI50 [32] of 2.61 µM. For the same compound, the TGI [32] was 7.6 µM, the GI50 [33] was 1.93 µM and the TGI [33] was 5.06 µM. For the same compound, the GI50 [34] was 2.67 µM, the TGI [34] was 9.56 µM and the GI50 [35] was 2.34 µM. For the same compound, the TGI [35] was 5.43 µM, the GI50 [36] was 1.61 µM and the TGI [36] was 3.06 µM. The GI50 [37] was 34.8 µM, the TGI [37] was > 100 µM and the GI50 [38] was 2.88 µM. For the same compound, the TGI [38] was 43.8 µM, the GI50 [39] was 2.18 µM and the TGI [39] was 4.68 µM. For the same compound, the GI50 [40] was 3.82 µM, the TGI [40] was > 100 µM and the GI50 [41] was 3.26 µM. For the same compound, the TGI [41] was 17 µM, the GI50 [42] was 2.77 µM and the TGI [42] was > 100 µM. For the same compound, the GI50 [43] was 3.47 µM, the TGI [43] was > 100 µM and the GI50 [44] was 2.95 µM. The TGI [44] was > 100 µM, the GI50 [45] was 4.03 µM and the TGI [45] was 25.5 µM. The GI50 [46] was 2 µM, the TGI [46] was 4.43 µM and the GI50 [47] was 4.03 µM. It also gave a TGI [47] of 27.3 µM, a GI50 [48] of 3.08 µM and a TGI [48] of 11.2 µM. It also gave a GI50 [49] of 2.03 µM, a TGI [49] of 4.63 µM and a GI50 [50] of 2.52 µM. For the same compound, the TGI [50] was > 100 µM, the GI50 [51] was 2.14 µM and the TGI [51] was 4.67 µM. It also gave a GI50 [52] of 2.45 µM, a TGI [52] of 5.56 µM and a GI50 [53] of 3.53 µM. For the same compound, the TGI [53] was > 100 µM, the GI50 [54] was 3.05 µM and the TGI [54] was 13.2 µM.
